From PubChem BioAssay (NCI)
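96-well plates; 48 h exposure; 5 concentrations. Endpoints by linear interpolation between flanking doses. Not reached: highest tested concentration assigned. The concentration for full growth arrest is given as TGI.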

Assays:
Test in all cases: NCI-60 cell line screen, 48 h
SW-620 colon = tested on: SW-620 colon
SF-268 CNS = tested on: SF-268 CNS
SK-MEL-5 melanoma = tested on: SK-MEL-5 melanoma
NCI-H522 lung = tested on: NCI-H522 lung
A498 renal = tested on: A498 renal
RXF 393 renal = tested on: RXF 393 renal
SF-295 CNS = tested on: SF-295 CNS
DU-145 prostate = tested on: DU-145 prostate
COLO 205 colon = tested on: COLO 205 colon
OVCAR-8 ovarian = tested on: OVCAR-8 ovarian
CCRF-CEM leukemia = tested on: CCRF-CEM leukemia
LOX IMVI melanoma = tested on: LOX IMVI melanoma
T-47D breast = tested on: T-47D breast
MCF7 breast = tested on: MCF7 breast
NCI-H460 lung = tested on: NCI-H460 lung
UO-31 renal = tested on: UO-31 renal
SR leukemia = tested on: SR leukemia
TK-10 renal = tested on: TK-10 renal
OVCAR-4 ovarian = tested on: OVCAR-4 ovarian
SN12C renal = tested on: SN12C renal
MDA-MB-231 breast = tested on: MDA-MB-231 breast
BT-549 breast = tested on: BT-549 breast
CAKI-1 renal = tested on: CAKI-1 renal
UACC-257 melanoma = tested on: UACC-257 melanoma
SNB-19 CNS = tested on: SNB-19 CNS
K-562 leukemia = tested on: K-562 leukemia
NCI-H23 lung = tested on: NCI-H23 lung
PC-3 prostate = tested on: PC-3 prostate
M14 melanoma = tested on: M14 melanoma
SK-MEL-28 melanoma = tested on: SK-MEL-28 melanoma
HOP-62 NSCLC = tested on: HOP-62 NSCLC
U251 CNS = tested on: U251 CNS
HT29 colon = tested on: HT29 colon
MDA-MB-435 = tested on: MDA-MB-435
EKVX NSCLC = tested on: EKVX NSCLC
IGROV1 ovarian = tested on: IGROV1 ovarian
RPMI-8226 leukemia = tested on: RPMI-8226 leukemia
HS 578T breast = tested on: HS 578T breast
SNB-75 CNS = tested on: SNB-75 CNS
OVCAR-3 ovarian = tested on: OVCAR-3 ovarian
HCT-116 colon = tested on: HCT-116 colon
HOP-92 NSCLC = tested on: HOP-92 NSCLC
UACC-62 melanoma = tested on: UACC-62 melanoma
786-0 renal = tested on: 786-0 renal
HCT-15 colon = tested on: HCT-15 colon
KM12 colon = tested on: KM12 colon
SF-539 CNS = tested on: SF-539 CNS
HCC-2998 colon = tested on: HCC-2998 colon
ACHN renal = tested on: ACHN renal
MOLT-4 leukemia = tested on: MOLT-4 leukemia
A549 NSCLC = tested on: A549 NSCLC
OVCAR-5 ovarian = tested on: OVCAR-5 ovarian
SK-MEL-2 melanoma = tested on: SK-MEL-2 melanoma
MALME-3M melanoma = tested on: MALME-3M melanoma
NCI/ADR-RES ovarian = tested on: NCI/ADR-RES ovarian
MDA-N = tested on: MDA-N
SK-OV-3 ovarian = tested on: SK-OV-3 ovarian
NCI-H226 lung = tested on: NCI-H226 lung
HL-60(TB) leukemia = tested on: HL-60(TB) leukemia

In the case of `C#CCn1ncc2c(SCc3ccccc3)ncnc21`, the TGI (SW-620 colon) is reported as > 100 µM, the TGI (SF-268 CNS) is reported as > 100 µM and the TGI (SK-MEL-5 melanoma) is reported as > 100 µM. The TGI (NCI-H522 lung) was > 100 µM, the TGI (A498 renal) was > 100 µM and the TGI (RXF 393 renal) was > 100 µM. The TGI (SF-295 CNS) was > 100 µM, the TGI (DU-145 prostate) was > 100 µM and the TGI (COLO 205 colon) was > 100 µM. The TGI (OVCAR-8 ovarian) was > 100 µM, the TGI (CCRF-CEM leukemia) was > 100 µM and the TGI (LOX IMVI melanoma) was > 100 µM. For the same compound, the TGI (T-47D breast) was 27.1 µM, the TGI (MCF7 breast) was > 100 µM and the TGI (NCI-H460 lung) was > 100 µM. For the same compound, the TGI (UO-31 renal) was > 100 µM, the TGI (SR leukemia) was > 100 µM and the TGI (TK-10 renal) was > 100 µM. The TGI (OVCAR-4 ovarian) was > 100 µM, the TGI (SN12C renal) was > 100 µM and the TGI (MDA-MB-231 breast) was > 100 µM. For the same compound, the TGI (BT-549 breast) was > 100 µM, the TGI (CAKI-1 renal) was > 100 µM and the TGI (UACC-257 melanoma) was > 100 µM. The TGI (SNB-19 CNS) was > 100 µM, the TGI (K-562 leukemia) was > 100 µM and the TGI (NCI-H23 lung) was > 100 µM. The TGI (PC-3 prostate) was > 100 µM, the TGI (M14 melanoma) was > 100 µM and the TGI (SK-MEL-28 melanoma) was > 100 µM. The TGI (HOP-62 NSCLC) was > 100 µM, the TGI (U251 CNS) was > 100 µM and the TGI (HT29 colon) was > 100 µM. The TGI (MDA-MB-435) was > 100 µM, the TGI (EKVX NSCLC) was > 100 µM and the TGI (IGROV1 ovarian) was > 100 µM. The TGI (RPMI-8226 leukemia) was > 100 µM, the TGI (HS 578T breast) was > 100 µM and the TGI (SNB-75 CNS) was > 100 µM. For the same compound, the TGI (OVCAR-3 ovarian) was > 100 µM, the TGI (HCT-116 colon) was > 100 µM and the TGI (HOP-92 NSCLC) was > 100 µM. The TGI (UACC-62 melanoma) was > 100 µM, the TGI (786-0 renal) was > 100 µM and the TGI (HCT-15 colon) was > 100 µM. For the same compound, the TGI (KM12 colon) was > 100 µM, the TGI (SF-539 CNS) was > 100 µM and the TGI (HCC-2998 colon) was > 100 µM. For the same compound, the TGI (ACHN renal) was > 100 µM, the TGI (MOLT-4 leukemia) was 39 µM and the TGI (A549 NSCLC) was > 100 µM. The TGI (OVCAR-5 ovarian) was > 100 µM, the TGI (SK-MEL-2 melanoma) was > 100 µM and the TGI (MALME-3M melanoma) was > 100 µM. The TGI (NCI/ADR-RES ovarian) was > 100 µM, the TGI (MDA-N) was > 100 µM and the TGI (SK-OV-3 ovarian) was > 100 µM. For the same compound, the TGI (NCI-H226 lung) was > 100 µM.

For `CC(C)=CCS(=O)c1ccccc1NC1=CC(=O)CC(C)(C)C1` (stereo not given), the TGI (SW-620 colon) was > 100 µM, the TGI (SF-268 CNS) was > 100 µM and the TGI (SK-MEL-5 melanoma) was > 100 µM. For the same compound, the TGI (NCI-H522 lung) was > 100 µM, the TGI (A498 renal) was > 100 µM and the TGI (RXF 393 renal) was > 100 µM. For the same compound, the TGI (DU-145 prostate) was > 100 µM, the TGI (COLO 205 colon) was > 100 µM and the TGI (OVCAR-8 ovarian) was > 100 µM. The TGI (CCRF-CEM leukemia) was > 100 µM, the TGI (LOX IMVI melanoma) was > 100 µM and the TGI (T-47D breast) was > 100 µM. For the same compound, the TGI (MCF7 breast) was > 100 µM, the TGI (NCI-H460 lung) was > 100 µM and the TGI (UO-31 renal) was > 100 µM. The TGI (SR leukemia) was > 100 µM, the TGI (TK-10 renal) was > 100 µM and the TGI (OVCAR-4 ovarian) was > 100 µM. The TGI (SN12C renal) was > 100 µM, the TGI (MDA-MB-231 breast) was > 100 µM and the TGI (BT-549 breast) was > 100 µM. For the same compound, the TGI (CAKI-1 renal) was > 100 µM, the TGI (UACC-257 melanoma) was > 100 µM and the TGI (SNB-19 CNS) was > 100 µM. For the same compound, the TGI (K-562 leukemia) was > 100 µM, the TGI (NCI-H23 lung) was > 100 µM and the TGI (PC-3 prostate) was > 100 µM. The TGI (M14 melanoma) was > 100 µM, the TGI (SK-MEL-28 melanoma) was > 100 µM and the TGI (HOP-62 NSCLC) was 0.855 µM. For the same compound, the TGI (U251 CNS) was 2.42 µM, the TGI (HT29 colon) was > 100 µM and the TGI (MDA-MB-435) was > 100 µM. The TGI (EKVX NSCLC) was > 100 µM, the TGI (IGROV1 ovarian) was > 100 µM and the TGI (RPMI-8226 leukemia) was > 100 µM. For the same compound, the TGI (HS 578T breast) was > 100 µM, the TGI (SNB-75 CNS) was > 100 µM and the TGI (OVCAR-3 ovarian) was > 100 µM. The TGI (HCT-116 colon) was > 100 µM, the TGI (HOP-92 NSCLC) was > 100 µM and the TGI (UACC-62 melanoma) was > 100 µM. The TGI (HL-60(TB) leukemia) was > 100 µM, the TGI (786-0 renal) was > 100 µM and the TGI (HCT-15 colon) was 28.7 µM. For the same compound, the TGI (KM12 colon) was > 100 µM, the TGI (SF-539 CNS) was > 100 µM and the TGI (HCC-2998 colon) was > 100 µM. The TGI (ACHN renal) was > 100 µM, the TGI (MOLT-4 leukemia) was > 100 µM and the TGI (A549 NSCLC) was > 100 µM. The TGI (OVCAR-5 ovarian) was > 100 µM, the TGI (SK-MEL-2 melanoma) was > 100 µM and the TGI (MALME-3M melanoma) was > 100 µM. For the same compound, the TGI (NCI/ADR-RES ovarian) was > 100 µM, the TGI (MDA-N) was > 100 µM and the TGI (SK-OV-3 ovarian) was > 100 µM. For the same compound, the TGI (NCI-H226 lung) was > 100 µM.

With `COc1cccc(OC)c1/C=C1\OC(=O)c2cccc(OC)c21` the TGI (SW-620 colon) was > 100 µM, the TGI (SF-268 CNS) was > 100 µM and the TGI (SK-MEL-5 melanoma) was > 100 µM. The TGI (NCI-H522 lung) was 12.2 µM, the TGI (A498 renal) was 32.3 µM and the TGI (RXF 393 renal) was 65 µM. For the same compound, the TGI (SF-295 CNS) was > 28.2 µM, the TGI (DU-145 prostate) was > 100 µM and the TGI (COLO 205 colon) was 30.9 µM. For the same compound, the TGI (OVCAR-8 ovarian) was > 100 µM, the TGI (CCRF-CEM leukemia) was > 100 µM and the TGI (LOX IMVI melanoma) was > 100 µM. The TGI (T-47D breast) was > 100 µM, the TGI (MCF7 breast) was > 100 µM and the TGI (NCI-H460 lung) was > 100 µM. For the same compound, the TGI (UO-31 renal) was > 100 µM, the TGI (SR leukemia) was > 24.3 µM and the TGI (TK-10 renal) was > 100 µM. For the same compound, the TGI (OVCAR-4 ovarian) was > 100 µM, the TGI (SN12C renal) was > 100 µM and the TGI (MDA-MB-231 breast) was > 100 µM. For the same compound, the TGI (BT-549 breast) was > 90.6 µM, the TGI (CAKI-1 renal) was > 75.2 µM and the TGI (UACC-257 melanoma) was > 100 µM. The TGI (SNB-19 CNS) was > 100 µM, the TGI (K-562 leukemia) was > 100 µM and the TGI (NCI-H23 lung) was > 100 µM. The TGI (PC-3 prostate) was > 100 µM, the TGI (M14 melanoma) was > 58.9 µM and the TGI (SK-MEL-28 melanoma) was > 100 µM. The TGI (HOP-62 NSCLC) was 56 µM, the TGI (U251 CNS) was > 100 µM and the TGI (HT29 colon) was > 100 µM. The TGI (MDA-MB-435) was 2.12 µM, the TGI (EKVX NSCLC) was > 100 µM and the TGI (IGROV1 ovarian) was > 100 µM. For the same compound, the TGI (RPMI-8226 leukemia) was > 100 µM, the TGI (HS 578T breast) was 26.7 µM and the TGI (SNB-75 CNS) was 17.9 µM. The TGI (OVCAR-3 ovarian) was 13.5 µM, the TGI (HCT-116 colon) was > 100 µM and the TGI (HOP-92 NSCLC) was > 63 µM. The TGI (UACC-62 melanoma) was > 31 µM, the TGI (HL-60(TB) leukemia) was > 19.7 µM and the TGI (786-0 renal) was > 100 µM. For the same compound, the TGI (HCT-15 colon) was > 100 µM, the TGI (KM12 colon) was > 100 µM and the TGI (SF-539 CNS) was 6.21 µM. For the same compound, the TGI (HCC-2998 colon) was > 100 µM, the TGI (ACHN renal) was > 100 µM and the TGI (MOLT-4 leukemia) was > 100 µM. For the same compound, the TGI (A549 NSCLC) was > 100 µM, the TGI (OVCAR-5 ovarian) was > 100 µM and the TGI (SK-MEL-2 melanoma) was > 30.1 µM. The TGI (MALME-3M melanoma) was > 95.5 µM, the TGI (NCI/ADR-RES ovarian) was > 100 µM and the TGI (MDA-N) was 3.32 µM. The TGI (SK-OV-3 ovarian) was > 100 µM and the TGI (NCI-H226 lung) was > 29.5 µM.
